In patent publication US7820703B2, “Lysophosphatidic acid receptor selective antagonists” (University of Virginia Patent Foundation, priority 2004, dated 2010):
pEC50, pIC50, pKi: −log10 of the molar value. “Also recorded” adds a separate entry of the source.

Legend:
Format in all cases: biochemical
mouse LPA1 = mouse LPA1 (Mus musculus, UniProt P61793); test: GTP[γ35S] binding assay, agonist activity at LPA1; set-up: expressed in transfected cells; host or cells: HEK293T cells (membranes); conditions: for LPA1 Emax: LPA = 100; for pEC50: transfected HEK293T cell membranes
mouse LPA1, sequence (P61793 whole entry): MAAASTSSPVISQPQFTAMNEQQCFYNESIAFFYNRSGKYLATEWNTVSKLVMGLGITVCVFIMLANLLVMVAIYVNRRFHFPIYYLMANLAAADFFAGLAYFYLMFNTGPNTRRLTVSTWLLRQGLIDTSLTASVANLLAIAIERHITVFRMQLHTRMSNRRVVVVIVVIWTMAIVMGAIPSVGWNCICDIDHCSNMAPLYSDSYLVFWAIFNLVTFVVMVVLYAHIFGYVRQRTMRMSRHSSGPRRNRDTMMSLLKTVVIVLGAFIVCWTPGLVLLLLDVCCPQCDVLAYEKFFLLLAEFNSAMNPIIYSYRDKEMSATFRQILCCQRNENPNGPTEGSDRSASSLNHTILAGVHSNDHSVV
Protocol: (§1) The appropriate receptor plasmid DNA (encoding mouse LPA1, human LPA2 or human LPA3) was mixed with equal amounts of expression plasmids (pcDNA3) encoding a mutated (C351F) rat Gi2a, cow β1, and γ2 proteins and these DNAs were used to transfect monolayers of HEK293T cells (where ‘T’ indicates expression of the SV-40 virus large T antigen) using the calcium phosphate precipitate method. After about 60 hours, cells were harvested, membranes were prepared, aliquoted and stored at −70° C. until use.
(§2) The GTP[35 γS] assay was performed as described by us previously. Membranes containing 5 ug of protein were incubated in 0.1 ml GTP-binding buffer (in mM: HEPES 50, NaCl 100, MgCl2 10, pH7.5) containing […], […], 0.1 nM GTP[35 γS] (1200 Ci/mmol), and indicated lipid(s) for 30 minutes at 30° C. Samples were analyzed for membrane-bound radionuclide using a Brandel Cell Harvester (Gaithersburg, Md.). The C351F mutation renders the Gi2α protein resistant to inactivation by pertussis toxin or the alkylating agent N-ethylmaleimide; however in practice background binding was sufficiently low to obviate these maneuvers.
(§3) This assay isolates each recombinant LPA receptor and allows analysis of all three receptors using the same system.
(§4) Membranes prepared from these cells are used to measure GTPγ[^35S] binding as a function of test compound concentration. The resulting dose-response curves provide relative potency (EC50) and efficacy (Emax) for the test compounds.

human LPA3 [1] = target: T1, human LPA3 (Homo sapiens, UniProt Q9UBY5); test: GTP[γ35S] binding assay, agonist activity at LPA3; set-up: expressed in transfected cells; host or cells: HEK293T cells (membranes); conditions: for LPA3 Emax: LPA = 100; for pEC50: transfected HEK293T cell membranes
T1 sequence (Q9UBY5 1-353): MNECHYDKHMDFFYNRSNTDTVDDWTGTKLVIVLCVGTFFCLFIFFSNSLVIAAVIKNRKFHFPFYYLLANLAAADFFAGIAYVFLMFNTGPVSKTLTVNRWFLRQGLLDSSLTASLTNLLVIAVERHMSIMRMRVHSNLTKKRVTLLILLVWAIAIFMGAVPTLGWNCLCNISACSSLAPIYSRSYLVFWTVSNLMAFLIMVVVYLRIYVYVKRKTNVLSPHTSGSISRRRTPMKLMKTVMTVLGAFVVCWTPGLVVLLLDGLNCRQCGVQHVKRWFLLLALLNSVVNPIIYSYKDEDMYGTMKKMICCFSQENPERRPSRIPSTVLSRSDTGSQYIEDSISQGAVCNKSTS
Protocol: as §1, §2, §3, §4

human LPA2 [2] = target: T2, human LPA2 (Homo sapiens, UniProt Q9HBW0); test: antagonism of LPA-evoked GTP[γ35S] binding at LPA2; set-up: expressed in transfected cells; host or cells: HEK293T cells (membranes)
T2 sequence (Q9HBW0 whole entry): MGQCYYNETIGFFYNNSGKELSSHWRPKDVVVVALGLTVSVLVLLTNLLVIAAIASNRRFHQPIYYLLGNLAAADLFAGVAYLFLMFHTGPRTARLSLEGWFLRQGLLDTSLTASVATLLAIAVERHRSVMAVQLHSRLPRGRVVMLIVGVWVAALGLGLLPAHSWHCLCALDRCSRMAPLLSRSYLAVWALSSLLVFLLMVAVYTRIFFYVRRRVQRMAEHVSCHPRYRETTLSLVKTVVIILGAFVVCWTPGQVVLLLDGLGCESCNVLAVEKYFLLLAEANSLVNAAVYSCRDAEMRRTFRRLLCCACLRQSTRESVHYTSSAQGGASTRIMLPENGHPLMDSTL
Protocol: as §1, §2
All compounds were characterized by ^1H and ^13C NMR, mass spectroscopy and, in certain cases, elemental analysis. A GTP[γ35S] binding assay was adapted to assess in vitro activity. […] The Ki values as determined by Schild regression are shown for the LPA1 receptor. […]

human LPA2 [3] = target: T2, human LPA2; test: GTP[γ35S] binding assay, agonist activity at LPA2; set-up: expressed in transfected cells; host or cells: HEK293T cells (membranes); conditions: for LPA2 Emax: LPA = 100; for pEC50: transfected HEK293T cell membranes
Protocol: as §1
(§5) The GTP[35 γS] assay was performed as described by us previously. Membranes containing 5 ug of protein were incubated in 0.1 ml GTP-binding buffer (in mM: HEPES 50, NaCl 100, MgCl2 10, pH7.5) containing […], […], 0.1 nM GTP[35 γS] (1200 Ci/mmol), and indicated lipid(s) for 30 minutes at 30° C. Samples were analyzed for membrane-bound radionuclide using a Brandel Cell Harvester (Gaithersburg, Md.).
as §4

LPA1 receptor = target: T3, LPA1 receptor (Mus musculus, UniProt P61793); test: antagonism of LPA-evoked GTP[γ35S] binding at LPA1; conditions: for pIC50: antagonism of LPA-evoked GTP[γ35S] binding; for antagonist activity at LPA1, in words: GTP[γ35S] binding; for pKi: determined by Schild regression
T3 construct: expressed in transfected cells; host or cells: HEK293T cells (membranes)
T3 sequence (P61793 whole entry): as the sequence (P61793 whole entry) above
Protocol: as §1, §5
(§6) The X-intercept of the linear transformation is equal to the inverse log of the KI.
(§7) All compounds were characterized by ^1H and ^13C NMR, mass spectroscopy and, in certain cases, elemental analysis. A GTP[γ35S] binding assay was adapted to assess in vitro activity.
(§8) All compounds were characterized by ^1H and ^13C NMR, mass spectroscopy and, in most cases, C, H, N analyses. A membrane-based GTP[γ^35S] binding assay was adapted to assess in vitro activity at the LPA1 and LPA3 receptors.

human LPA3 [4] = target: T1, human LPA3; test: antagonism of LPA-evoked GTP[γ35S] binding at LPA3; set-up: expressed in transfected cells; host or cells: HEK293T cells (membranes); conditions: for pIC50: antagonism of LPA-evoked GTP[γ35S] binding; for antagonist activity at LPA3, in words: GTP[γ35S] binding
Protocol: as §1, §5, §6, §7, §8

LPP3 (PAP2b) = target: T4, LPP3 (PAP2b) (Homo sapiens, UniProt O14495); test: LPP inhibition, competition with [32P]LPA, LPP3; conditions: competition with 50 nM [32P]LPA
T4 sequence (O14495 1-311): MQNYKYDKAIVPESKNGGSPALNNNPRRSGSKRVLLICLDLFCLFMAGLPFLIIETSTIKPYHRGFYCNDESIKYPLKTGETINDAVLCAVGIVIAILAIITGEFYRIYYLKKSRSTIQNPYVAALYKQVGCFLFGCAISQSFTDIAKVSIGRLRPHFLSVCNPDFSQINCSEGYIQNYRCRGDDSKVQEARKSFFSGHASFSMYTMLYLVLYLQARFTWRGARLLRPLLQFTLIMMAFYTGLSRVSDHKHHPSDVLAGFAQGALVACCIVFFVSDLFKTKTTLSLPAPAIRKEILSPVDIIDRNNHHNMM
Protocol: NOHPP was also tested for activity at the three cloned LPPs. Although the phosphonate head group eliminates the possibility of NOHPP acting as a substrate, it is possible that the compound could be a competitive inhibitor.

With CCCCCCCC/C=C\CCCCCCCC(=O)N[C@@H](COP(=O)(O)O)Cc1ccc(OCc2ccc(CCCCC)cc2)cc1 [VPC31162] the “agonist activity at LPA1, in words” value (mouse LPA1) was “agonist”, the “agonist activity at LPA3, in words” value (human LPA3 [1]) was “agonist” and the “antagonist activity at LPA2, in words” value (human LPA2 [2]) was “antagonist activity”.
For CCCCCCCC/C=C\CCCCCCCC(=O)N[C@@H](C)COP(=O)(O)O [VPC12101], the “LPA1 Emax” value (mouse LPA1) was 48.1, the pEC50 (mouse LPA1) was 5.54 and the “LPA2 Emax” value (human LPA2 [3]) was 6.9. For the same molecule, the pEC50 (human LPA2 [3]) was < 5.30, the “LPA3 Emax” value (human LPA3 [1]) was 9.7 and the pEC50 (human LPA3 [1]) was < 5.30.
With CCCCCCCC/C=C\CCCCCCCC(=O)N[C@H](CO)COP(=O)(O)O [VPC31143] the “agonist activity at LPA1, in words” value (mouse LPA1) was “more potent than 1-oleoyl LPA”.
For “1-acyl, 2-hydroxyl-sn-glycerol-3-phosphate [LPA, reference compound]”, the pEC50 (human LPA2 [3]) was 8.17, the “LPA3 Emax” value (human LPA3 [1]) was 100 and the pEC50 (human LPA3 [1]) was 6.58.
In the case of CCCCCCCC/C=C\CCCCCCCC(=O)N[C@@H](COP(=O)(O)O)C(=O)c1ccc(OCc2ccccc2)cc1 [Compound 39a], the pIC50 (LPA1 receptor) was < 5.00 and the pIC50 (human LPA3 [4]) was < 5.00.
CCCCCCCC/C=C\CCCCCCCC(=O)N[C@H](COP(=O)(O)O)Cc1ccc(OCc2cccc(OC)n2)cc1 [Compound 57f] was tested, and the pIC50 (LPA1 receptor) was < 5.00 and the pIC50 (human LPA3 [4]) was 5.96.
CCCCCCCC/C=C\CCCCCCCC(=O)N[C@H](COP(=O)(O)O)Cc1ccc(OCc2cc(OC)c3ccccc3n2)cc1 [Compound 57p] was tested, and the pIC50 (LPA1 receptor) was < 5.00 and the pIC50 (human LPA3 [4]) was 5.59.
CCCCCCCC/C=C\CCCCCCCC(=O)N[C@H](C)COP(=O)(O)O [VPC12086] was tested, and the “agonist activity at LPA1, in words” value (mouse LPA1) was “more potent and efficacious than LPA; also recorded: more potent than 1-oleoyl LPA”, the “LPA1 Emax” value (mouse LPA1) was 107.6 and the pEC50 (mouse LPA1) was 8.47. The “LPA2 Emax” value (human LPA2 [3]) was 95.2, the pEC50 (human LPA2 [3]) was 7.74 and the “LPA3 Emax” value (human LPA3 [1]) was 93.4. It also gave a pEC50 (human LPA3 [1]) of 6.95.
In the case of CCCCCCCC/C=C\CCCCCCCC(=O)N[C@@H](CCP(=O)(O)O)Cc1ccc(OCc2ncc(C)c(OC)c2C)cc1 [Compound 63d], the “antagonist activity at LPA1, in words” value (LPA1 receptor) was “no antagonism”, the pIC50 (LPA1 receptor) was < 5.00 and the “antagonist activity at LPA3, in words” value (human LPA3 [4]) was “improved potency over lead compound 26a”. It also gave a pIC50 (human LPA3 [4]) of 6.82.
With CCCCCCCCC=CCCCCCCCC(=O)NC(COP(=O)(O)O)Cc1ccc(OC(=O)c2ccc(N)cc2)cc1 (stereo not shown) [Compound 35p] the “antagonist activity at LPA1, in words” value (LPA1 receptor) was “devoid of activity” and the “antagonist activity at LPA3, in words” value (human LPA3 [4]) was “devoid of activity”.
With CCCCCCCC/C=C\CCCCCCCC(=O)N[C@H](CN)COP(=O)(O)O [VPC12178] the “agonist activity at LPA1, in words” value (mouse LPA1) was “more potent than 1-oleoyl LPA”, the “LPA1 Emax” value (mouse LPA1) was 98.7 and the pEC50 (mouse LPA1) was 8.31. The “LPA2 Emax” value (human LPA2 [3]) was 103.2, the pEC50 (human LPA2 [3]) was 7.30 and the “LPA3 Emax” value (human LPA3 [1]) was 102.9. The pEC50 (human LPA3 [1]) was 6.17.
Work on CCCCCCCC/C=C\CCCCCCCC(=O)N[C@@H](COP(=O)(O)O)Cc1ccc(OCc2ncc(C)c(OC)c2C)cc1 [Compound 57l] yielded a pIC50 (LPA1 receptor) of 7.21, a pKi (LPA1 receptor) of 7.55 and a pIC50 (human LPA3 [4]) of 7.41.
CCCCCCCC/C=C\CCCCCCCC(=O)NCCC(=O)P(=O)(O)O [VPC12060] was tested, and the “inhibition of LPP3” value (LPP3 (PAP2b)) was “markedly better at the PAP2b (LPP3) than PAP2a (LPP1)”.
Work on CCCCCCCC/C=C\CCCCCCCC(=O)N[C@@H](COP(=O)(O)O)Cc1ccc(OCc2cc(OCC)ccn2)cc1 [Compound 57h] yielded a pIC50 (LPA1 receptor) of 6.84, a pKi (LPA1 receptor) of 7.59 and a pIC50 (human LPA3 [4]) of 7.41.
For CCCCCCCC/C=C\CCCCCCCC(=O)N[C@@H](COP(=O)(O)O)Cc1ccc(OCc2cc(OCCC)ccn2)cc1 [Compound 57j], the pIC50 (LPA1 receptor) was 6.85 and the pKi (LPA1 receptor) was 7.19.
In the case of CCCCCCCC/C=C\CCCCCCCC(=O)N[C@H](COP(=O)(O)O)C(=O)c1ccc(OCc2ccccc2)cc1 [Compound 39b], the “antagonist activity at LPA1, in words” value (LPA1 receptor) was “retains potency comparable to 26”, the pIC50 (LPA1 receptor) was 5.60 and the pIC50 (human LPA3 [4]) was < 5.00.
CCCCCCCCC=CCCCCCCCC(=O)NC(COP(=O)(O)O)Cc1ccc(OCc2cc(OCC(F)(F)F)ccn2)cc1 (stereo not shown) [Compound 57i] was tested, and the “antagonist activity at LPA1, in words” value (LPA1 receptor) was “equipotent to 26a”, the pIC50 (LPA1 receptor) was 7.08 and the pKi (LPA1 receptor) was 7.72. For the same molecule, the “antagonist activity at LPA3, in words” value (human LPA3 [4]) was “three-fold more potent” and the pIC50 (human LPA3 [4]) was 7.32.
CCCCCC=CCC=CCCCCCCCC(=O)NC(COP(=O)(O)O)Cc1ccc(OCc2ccccc2)cc1 (stereo not shown) [Compound 29e] was tested, and the “antagonist activity at LPA1, in words” value (LPA1 receptor) was “potency comparable to lead compound 26”.
With CCCCCCCC/C=C\CCCCCCCC(=O)N[C@H](CC)COP(=O)(O)O [VPC12109] the “LPA1 Emax” value (mouse LPA1) was 66.8, the pEC50 (mouse LPA1) was 7.45 and the “LPA2 Emax” value (human LPA2 [3]) was 92.6. The pEC50 (human LPA2 [3]) was 6.79, the “LPA3 Emax” value (human LPA3 [1]) was 83.5 and the pEC50 (human LPA3 [1]) was 5.97.
With CCCCCCCC/C=C\CCCCCCCC(=O)N[C@@H](CN)COP(=O)(O)O [Compound 12048] the “LPA1 Emax” value (mouse LPA1) was 9.4, the pEC50 (mouse LPA1) was < 5.30 and the “LPA2 Emax” value (human LPA2 [3]) was 36.4. The pEC50 (human LPA2 [3]) was < 5.30, the “LPA3 Emax” value (human LPA3 [1]) was 3.8 and the pEC50 (human LPA3 [1]) was < 5.30.
Molecule CCCCCCCC/C=C\CCCCCCCC(=O)N[C@@H](COP(=O)(O)O)Cc1ccc(OCc2ccc3ccccc3n2)cc1 [Compound 57n] has a pIC50 (LPA1 receptor) of 5.84 and a pIC50 (human LPA3 [4]) of 6.27.
CCCCCCCC/C=C\CCCCCCCC(=O)N[C@H](COP(=O)(O)O)Cc1ccc(OCc2ncc(C)c(OC)c2C)cc1 [Compound 57m] was tested, and the pIC50 (LPA1 receptor) was 5.43 and the pIC50 (human LPA3 [4]) was 6.25.
